Measured values reported in publication PMC2864305 (Biochemistry, 2010).

Target: T1, RePC (Rhizobium etli pyruvate carboxylase) (Rhizobium etli, UniProt Q2K340)
T1 sequence (Q2K340 1-1154): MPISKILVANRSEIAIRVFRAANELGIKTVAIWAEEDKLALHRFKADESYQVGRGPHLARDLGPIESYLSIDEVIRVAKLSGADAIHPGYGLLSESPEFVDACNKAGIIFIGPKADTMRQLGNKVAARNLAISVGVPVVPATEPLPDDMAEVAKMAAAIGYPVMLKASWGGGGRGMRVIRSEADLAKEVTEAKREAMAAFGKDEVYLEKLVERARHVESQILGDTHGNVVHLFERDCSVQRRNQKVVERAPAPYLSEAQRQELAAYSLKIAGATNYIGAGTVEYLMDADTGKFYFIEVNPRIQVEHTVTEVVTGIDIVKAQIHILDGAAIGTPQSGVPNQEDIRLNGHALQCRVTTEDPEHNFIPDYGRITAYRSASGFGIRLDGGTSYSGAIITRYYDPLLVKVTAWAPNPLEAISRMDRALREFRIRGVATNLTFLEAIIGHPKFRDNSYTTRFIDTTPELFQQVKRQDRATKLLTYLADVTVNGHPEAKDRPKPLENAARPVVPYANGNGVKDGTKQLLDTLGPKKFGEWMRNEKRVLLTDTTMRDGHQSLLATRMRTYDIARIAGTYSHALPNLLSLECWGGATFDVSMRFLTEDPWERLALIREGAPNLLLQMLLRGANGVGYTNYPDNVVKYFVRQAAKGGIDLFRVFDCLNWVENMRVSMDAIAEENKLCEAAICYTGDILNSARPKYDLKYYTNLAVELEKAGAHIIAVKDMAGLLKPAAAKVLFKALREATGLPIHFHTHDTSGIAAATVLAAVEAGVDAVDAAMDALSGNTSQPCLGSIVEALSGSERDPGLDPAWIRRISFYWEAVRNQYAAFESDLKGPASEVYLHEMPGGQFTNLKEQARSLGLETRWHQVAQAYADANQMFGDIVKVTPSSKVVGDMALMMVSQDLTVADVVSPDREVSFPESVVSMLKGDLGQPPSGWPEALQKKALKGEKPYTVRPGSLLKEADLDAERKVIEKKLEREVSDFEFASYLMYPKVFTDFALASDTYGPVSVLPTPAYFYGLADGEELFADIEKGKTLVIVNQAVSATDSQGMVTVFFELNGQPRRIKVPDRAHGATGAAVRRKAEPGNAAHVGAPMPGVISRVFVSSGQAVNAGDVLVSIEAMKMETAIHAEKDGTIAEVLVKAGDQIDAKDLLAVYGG
Type: biochemical
Details: read-out: % inhibition at 20 mM

Work on `NC(=O)C(=O)O` [oxamate] yielded an inhibition at 20000 µM of 68%.
